Here are results for three compounds from patent publication US6583334B1, “Ovariectomized mouse model for human menopause” (Board of Trustees operating Michigan State University, priority 2000, dated 2003).

“And” between values parts separate entries of the source, which are not always exact repeats. Equal values may be shown once. “Also recorded” adds a separate entry of the source. Read-outs that look alike come from different tables or passages of the source.

Data set [1] has as its system mammary gland duct ends. Nature of the data set: Elvax implants of RU486 or ICI 182,780: duct end enlargement in E+P injected OVX mice. The format is in vivo, BALB/c virgin mice. The conditions noted are these: for reduction of number of enlarged duct ends induced by E+P: implant vs control implant; for number of enlarged duct ends (mean ± S.E.M.) per implanted mammary gland: 3 days E + P. The method, then:
Ten-week old BALB/c virgin mice from our own colony were bilaterally ovariectomized 1 or 5 weeks (wks) before hormone treatment. All mice received sc daily injections of 1 μg 17b-estradiol (E)+1 mg progesterone (P) as a suspension in 0.04% gum arabic in 0.85% NaCl; control groups received vehicle only. The E+P dosage was determined from previous studies on mouse mammary gland (Magnusson, C., et al., Int J Cancer 81:339-344 (1999); and Beral V., et al., Lancet 350:1047-1059 (1997)) on the basis that it produced modest sidebranching and alveolar bud development ([…]., Endocrinology 122:464-470 (1998)), and resembled the normal breast tissue of postmenopausal women who had received […]., et al., J Clin Endocrinol Metab 84:4559-4565 (1999)). […] The effects of the implants on the mammary gland were quantified morphometrically by capturing a digitized microscopic image of the mammary gland wholemount at 10× magnification using NIH/Image One software. The numbers and size of duct ends were measured within a 2 cm radius of the implant. Duct ends were considered to be enlarged if they were 1.0 mm or greater in diameter at the 10× magnification.

Data set [2] has as its system PR. Nature of the data set: PR immunohistochemistry/immunofluorescence after E. The format is in vivo, mice. An excerpt: A dissociation between E stimulation of cell proliferation and PR regulation in mouse mammary gland has previously been reported (Fendrick, J. L., et al., J Mammary Gland Biol Neoplasia 3:7-22 (1998)). Although E appears to mediate proliferation of epithelial cells indirectly via stroma, E acts directly in epithelial cells to increase PR levels (Haslam, S. Z., Endocrinol 122:860-867 (1988)). Thus, our observations of increased responsiveness to the proliferative effect, but decreased responsiveness to the PR regulatory effect of E indicate that mammary epithelial and stromal cells are affected differently by long-term OVX. To confirm this observation, we have also used immunohistochemical analysis to determine the percentage of PR positive cells and PR concentration per cell, using a fluorescein-conjugated secondary antibody detection system, similar to the ER immunofluorescence assay herein. […] Future studies are planned to determine the mechanistic basis of these different responses to OVX. A similar dissociation of estrogenic regulation of proliferation and PR level has recently been reported for normal human breast (Clark, R. B., et al., Cancer Res 57:4987-4991 (1997)). […] In contrast, since ER and PR do co-localize in the same cells, E appears to act directly to regulate PR in breast epithelial cells. […]

Data set [3] can be described thus: Serum levels of E by radioimmunoassay. The format is in vivo, BALB/c female mice. The conditions noted are these: female, BALB/c, mouse, 24 h after injection of 1 μg E at 5 wks post OVX, n=4, read-out: E serum level. The method, then:
(§1) Ten-week-old or 9-12 month-old BALB/c female mice from our own colony were bilaterally ovariectomized (OVX) under Nembutal anesthesia 1 or 5 weeks prior to E treatment. […] Injection was chosen as the method of systemic administration to optimize precision and reproducibility of hormone dosage. Serum levels of E were determined after OVX and E injection by radioimmunoassay using a commercial kit (Diagnostic Products Corp., Los Angeles, Calif.) according to the suppliers instructions. […] Therefore, in all experiments except time course studies, mammary glands were analyzed at 72 h after E treatment for DNA histoautoradiogrpahy and at 96 h after E treatment for morphological analysis.

Data set [4] relates to progesterone receptor (PR). Nature of the data set: PR ligand binding assay, time course of E induction of PR. In kind it is in vivo, BALB/c virgin mice. The conditions noted are these: for increase in PR levels: single injection of E. How it is done:
Hormone- or control-treated mammary glands were analyzed for progesterone receptor (PR) levels using a dextran-coated charcoal ligand binding assay (Haslam, S. G., Endocrinology 195:789-795 (1979)). Tissue DNA was quantitated as previously described (Ceriotti, G., J Biol Chem 198:297-303 (1952)).

In data set [5] the test system is MCF-7 human breast carcinoma cell line. The conditions noted are these: cited from earlier work.
Data set [6] concerns mammary epithelial and stromal cells. Briefly: DNA histoautoradiography (3H-thymidine labeling index) after E in OVX mice. In kind it is in vivo, BALB/c female mice. The conditions noted are these: for maximum proliferative response, 5 wk vs 1 wk post OVX: dose response study. The method, then: Ten-week-old or 9-12 month-old BALB/c female mice from our own colony were bilaterally ovariectomized (OVX) under Nembutal anesthesia 1 or 5 weeks prior to E treatment. […] Injection was chosen as the method of systemic administration to optimize precision and reproducibility of hormone dosage.
At various times after E injection, animals received a single ip injection of [^3H]thymidine in a dosage of 2 μCi/g BW 1 h before sacrifice. The mammary glands were removed, fixed and processed as wholemounts followed by embedding and sectioning for histoautcradiographic analysis as described previously. Histological sections were examined at 400× magnification to determine the DNA labeling indices (LIs) of epithelial and stromal cells. […] In parallel, stromal cell LIs were determined for areas adjacent to and distal from duct ends. Adjacent areas were defined to be within […] of the duct end (i.e. in the same microscope field at 400× magnification) and the distal areas were defined to be more than 400 μm away from the duct end. A minimum of 10 individual structures were evaluated for each of 5-9 mice per experimental group.

Data set [7] relates to mammary gland. Nature of the data set: Mammary gland wholemount morphology after E in OVX mice. In kind it is in vivo, BALB/c female mice. The method, then: as §1
For data set [8], the system named is progesterone receptor (PR). Briefly: Steroid hormone binding assay ([3H]R5020) for PR concentration after E. The format is in vivo, BALB/c female mice. The method, then:
To determine PR concentration, cytoplasmic extracts were prepared separately for mammary gland and uteri as described previously (Haslam, S. Z., et al., Endocrinol 108:825-830 (1981)). Mammary gland and uterine cytoplasmic extracts were incubated with a single saturating concentration of 20 nM [^3H]R5020 with 100-fold excess radioinert dexamethasone (for suppression of progestin binding to glucocorticoid receptors) or with 100-fold excess radioinert R5020. Specific binding was determined using a dextran-coated charcoal assay procedure as previously described (Haslam, S. Z., et al., Endocrinol 108:825-830(1981)). Tissue DNA was quantitated as previously described (Ceriotti, G., J Biol Chem 198:297-303 (1952)).

Setting [9] is: 24 hr after E injection, 5 wk post OVX.

Regarding `CC#C[C@]1(O)CC[C@H]2[C@@H]3CCC4=CC(=O)CCC4=C3[C@@H](c3ccc(N(C)C)cc3)C[C@@]21C` [RU486], in data set [1] (1 wk post OVX), the “reduction of number of enlarged duct ends induced by E+P” value is 9 fold. Moreover, the “number of enlarged duct ends (mean ± S.E.M.) per implanted mammary gland” value in data set [1] (early postmenopause (1 wk post OVX), 0.1 μg RU486 implant) came out at 0.75 ± 0.25; in data set [1] (late postmenopause (5 wk post OVX), 0.1 μg RU486 implant), 9.0 ± 1.0.
In the case of `C[C@]12CC[C@@H]3c4ccc(O)cc4C[C@@H](CCCCCCCCC[S+]([O-])CCCC(F)(F)C(F)(F)F)[C@H]3[C@@H]1CC[C@@H]2O` (stereo partly shown) [ICI 182,780], the “reduction of number of enlarged duct ends induced by E+P” value in data set [1] (5 wk post OVX) is recorded as 8 fold. The “number of enlarged duct ends (mean ± S.E.M.) per implanted mammary gland” value in data set [1] (late postmenopause (5 wk post OVX), 0.1 μg ICI 182,780 implant, n = 8) came to 1.0 ± 1.0.
As to `C[C@]12CC[C@@H]3c4ccc(O)cc4CC[C@H]3[C@@H]1CC[C@@H]2O` [E, 17β-estradiol], the “increase in PR concentration per cell” value in data set [2] (1 wk post OVX E-treated mammary glands) was determined as 2 fold. In addition, the “numbers of PR positive cells or amount of PR per cell” value in data set [2] (5 wk post OVX E-treated glands) was “no significant increase”. Moreover, the concentration at 24 h in data set [3] was found to be 0.031 ± 0.0078 ng/mL. Also, in data set [4] (5 wk post OVX), the “number of daily E injections until PR levels increased above control” value amounted to 7 daily E injections. Moreover, the “increase in PR levels” value is 2.5 fold and 2 fold in data set [4] (1 wk post OVX); “failed to increase PR levels” in data set [4] (5 wk post OVX). Moreover, the “dose for maximal proliferative response” value is reported as 10^−14 M in data set [5] (MCF-7 cells deprived of estrogen for 1-6 months) and 10^−10 M in data set [5] (MCF-7 cells, not estrogen-deprived). Moreover, in data set [6] (1 μg E, 72 h), the “stimulation of DNA synthesis in stromal cells adjacent to duct ends, 5 wk vs 1 wk post OVX” value is recorded as 4 fold. Besides, the “ED 50 of E-induced proliferation” value in data set [6] (1 vs 5 wk post OVX) is given as “identical”. Further, the “DNA synthesis in ducts” value in data set [6] (E-treated, 1 and 5 wk post OVX) is on record as “little or no DNA synthesis”. In addition, in data set [6] (after 3 days of daily sc E injection), the “maximal epithelial proliferative response, 5 wk vs 1 wk post OVX” value is given as 2.6 fold. Moreover, the “increased proliferative response in mammary stromal cells” value in data set [6] (after long-term OVX (discussion)) is listed as 3 fold. Further, in data set [6] (duct end epithelium, 1 μg E, 72 h), the “E-induced stimulation of DNA synthesis in duct ends, 5 wk vs 1 wk post OVX” value is reported as 6.5 fold. The “maximum proliferative response, 5 wk vs 1 wk post OVX” value in data set [6] (epithelial cells, 72 h) is recorded as 5.6 fold; in data set [6] (stromal cells, 72 h), 2.5 fold. Further, the “steady state stromal cell proliferation, 5 wk vs 1 wk post OVX” value in data set [6] (long-term daily E treatment) came out at 2 fold. In addition, the “steady state epithelial proliferation, 5 wk vs 1 wk post OVX” value in data set [6] (long-term daily E treatment up to 28 days) was 2 fold and 2.3 fold. Further, in data set [6] (mammary epithelial and stromal cells), the “time of maximal DNA synthesis / proliferative response after E injection” value was determined as 72 h. Further, the “percentage of mammary glands exhibiting stimulation of duct ends” value in data set [7] (5 wk post OVX, after E treatment (single ip 1 μg, 4 days later)) is reported as 100%. Moreover, in data set [7] (9-12 month old mice, OVX 1, 3 or 5 weeks prior to E), the “extent of stimulatory response to E as a function of time after ovariectomy” value is “identical to that obtained in 10-week-old mice”. The “effect on mammary gland morphology” value in data set [7] (E treatment at 1 wk post OVX) is reported as “no effect on morphology”; in data set [7] (E treatment at 5 wk post OVX (late postmenopausal)), “pronounced enlargement of duct ends; also recorded: produced enlarged duct ends”. Also, in data set [7] (mouse, in vivo), the “time of maximal morphological response after E injection” value came out at 96 h. The “morphological and DNA synthesis results” value in data set [7] (ovariectomized plus adrenalectomized mice) was “identical to those obtained with ovariectomy alone”. Besides, the “increase in PR in mammary gland” value in data set [8] (12, 24 and 36 h after E injection, 5 wk post OVX) is listed as “No increase”. Further, the “increase in PR binding in mammary gland” value in data set [8] (24 hr after E injection, 1 wk post OVX) is given as 2.5 fold; in data set [8] (setting [9]), “failed to increase; also recorded: no significant increase”. For the same compound, the “increase in PR in uteri” value in data set [8] (setting [9]) amounted to 8 fold.
